# Reference: patent publication US9302999B2, “Substituted triazoles as herbicides” (E. I. DU PONT DE NEMOURS AND COMPANY, priority 2012, dated 2016)
# Key:
# Type in all cases: in vivo
# [1] = tested on: barnyardgrass (Echinochloa crus-galli); assay: Test A pre-/postemergence: barnyardgrass
# How it was run: (§1)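 Plants in loam–sand blend were treated with test chemicals in non-phytotoxic solvent with surfactant, either as preemergence directed soil spray or postemergence at 2–10 cm, one- to two-leaf stage. After about ten days in greenhouse, injury was rated visually against untreated controls on a 0–100 scale (100 = complete control).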
# [2] = tested on: crabgrass, large (large crabgrass, Digitaria sanguinalis); assay: Test A pre-/postemergence: crabgrass, large
# How it was run: as §1
# [3] = tested on: foxtail, giant (giant foxtail, Setaria faberii); assay: Test A pre-/postemergence: foxtail, giant
# How it was run: as §1
# [4] = tested on: morningglory (Ipomoea spp.); assay: Test A pre-/postemergence: morningglory
# How it was run: as §1
# [5] = tested on: pigweed (Amaranthus retroflexus); assay: Test A pre-/postemergence: pigweed
# How it was run: as §1
# [6] = tested on: velvetleaf (Abutilon theophrasti); assay: Test A pre-/postemergence: velvetleaf
# How it was run: as §1
# [7] = tested on: wheat (Triticum aestivum); assay: Test A pre-/postemergence: wheat
# How it was run: as §1
# corn (Zea mays) = assay: Test A pre-/postemergence: corn
# How it was run: as §1
# rice (Oryza sativa) = assay: Test B flooded paddy: rice; settings: Flood, applied to paddy water at 2-leaf stage, visually evaluated after 13 to 15 days
# How it was run: (§2)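 Two-leaf-stage plants, pots flooded (3 cm above soil) and treated through the water, which stayed at that depth. After 13–15 days in greenhouse conditions, visual assessment versus controls: 0 is no effect, 100 complete control, dash means no result.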
# [8] = tested on: sedge, umbrella (small-flower umbrella sedge Cyperus difformis); assay: Test B flooded paddy: sedge, umbrella; settings: Flood, applied to paddy water at 2-leaf stage, visually evaluated after 13 to 15 days
# How it was run: as §2
# [9] = tested on: ducksalad (Heteranthera limosa); assay: Test B flooded paddy: ducksalad; settings: Flood, applied to paddy water at 2-leaf stage, visually evaluated after 13 to 15 days
# How it was run: as §2
# [10] = tested on: barnyardgrass (Echinochloa crus-galli); assay: Test B flooded paddy: barnyardgrass; settings: Flood, applied to paddy water at 2-leaf stage, visually evaluated after 13 to 15 days
# How it was run: as §2
# [11] = Postemergence, 125 g ai/ha, 0 to 100 scale, 0 is no effect, 100 is complete control
# [12] = Postemergence, 500 g ai/ha, 0 to 100 scale, 0 is no effect, 100 is complete control
# [13] = Preemergence, 125 g ai/ha, 0 to 100 scale where 0 is no effect and 100 is complete control
# [14] = Preemergence, 500 g ai/ha, 0 to 100 scale (0 no effect, 100 complete control)
smiles,measurement,setting,value
CC(C)COc1nn(-c2ccc(C(F)(F)F)cc2)nc1Cc1ccnc(C(F)(F)F)c1 [Compound 193],"Plant response rating, Barnyardgrass",[1]; [11],10
same,Barnyardgrass plant response rating,[1]; [12],20
same,"Plant response rating, Barnyardgrass",[1]; [13],0
same,"Plant response rating, Barnyardgrass",[1]; [14],0
same,"Plant response rating, Crabgrass, Large",[2]; [11],10
same,"Crabgrass, Large plant response rating",[2]; [12],30
same,"Plant response rating, Crabgrass, Large",[2]; [13],0
same,"Plant response rating, Crabgrass, Large",[2]; [14],40
same,"Plant response rating, Foxtail, Giant",[3]; [11],10
same,"Foxtail, Giant plant response rating",[3]; [12],20
same,"Plant response rating, Foxtail, Giant",[3]; [13],10
same,"Plant response rating, Foxtail, Giant",[3]; [14],70
same,"Plant response rating, Morningglory",[4]; [11],10
same,Morningglory plant response rating,[4]; [12],40
same,"Plant response rating, Morningglory",[4]; [13],0
same,"Plant response rating, Morningglory",[4]; [14],0
same,"Plant response rating, Pigweed",[5]; [11],70
same,Pigweed plant response rating,[5]; [12],100
same,"Plant response rating, Pigweed",[5]; [13],0
same,"Plant response rating, Pigweed",[5]; [14],20
same,"Plant response rating, Velvetleaf",[6]; [11],30
same,Velvetleaf plant response rating,[6]; [12],70
same,"Plant response rating, Velvetleaf",[6]; [13],0
same,"Plant response rating, Velvetleaf",[6]; [14],0
same,"Plant response rating, Wheat",[7]; [11],0
same,Wheat plant response rating,[7]; [12],10
same,"Plant response rating, Wheat",[7]; [13],0
same,"Plant response rating, Wheat",[7]; [14],0
same,"Plant response rating, Corn",corn (Zea mays); [11],10
same,Corn plant response rating,corn (Zea mays); [12],30
same,"Plant response rating, Corn",corn (Zea mays); [13],0
same,"Plant response rating, Corn",corn (Zea mays); [14],0
same,"Plant response rating, Rice (0 to 100 scale, 0 is no effect, 100 is complete control)",rice (Oryza sativa); 125 g ai/ha,0
same,"Plant response rating, Sedge, Umbrella (0 to 100 scale, 0 is no effect, 100 is complete control)",[8]; 125 g ai/ha,0
same,"Plant response rating, Ducksalad (0 to 100 scale, 0 is no effect, 100 is complete control)",[9]; 125 g ai/ha,0
same,"Plant response rating, Barnyardgrass (0 to 100 scale, 0 is no effect, 100 is complete control)",[10]; 125 g ai/ha,0
CCCCOc1nn(-c2ccc(C(F)(F)F)cc2)nc1Cc1ccnc(C(F)(F)F)c1 [Compound 194],"Plant response rating, Barnyardgrass",[1]; [11],10
same,Barnyardgrass plant response rating,[1]; [12],20
same,"Plant response rating, Barnyardgrass",[1]; [13],0
same,"Plant response rating, Barnyardgrass",[1]; [14],0
same,"Plant response rating, Crabgrass, Large",[2]; [11],10
same,"Crabgrass, Large plant response rating",[2]; [12],20
same,"Plant response rating, Crabgrass, Large",[2]; [13],0
same,"Plant response rating, Crabgrass, Large",[2]; [14],10
same,"Plant response rating, Foxtail, Giant",[3]; [11],10
same,"Foxtail, Giant plant response rating",[3]; [12],30
same,"Plant response rating, Foxtail, Giant",[3]; [13],0
same,"Plant response rating, Foxtail, Giant",[3]; [14],30
same,"Plant response rating, Morningglory",[4]; [11],10
same,Morningglory plant response rating,[4]; [12],30
same,"Plant response rating, Morningglory",[4]; [13],0
same,"Plant response rating, Morningglory",[4]; [14],0
same,"Plant response rating, Pigweed",[5]; [11],40
same,Pigweed plant response rating,[5]; [12],100
same,"Plant response rating, Pigweed",[5]; [13],0
same,"Plant response rating, Pigweed",[5]; [14],10
same,"Plant response rating, Velvetleaf",[6]; [11],30
same,Velvetleaf plant response rating,[6]; [12],50
same,"Plant response rating, Velvetleaf",[6]; [13],0
same,"Plant response rating, Velvetleaf",[6]; [14],0
same,"Plant response rating, Wheat",[7]; [11],0
same,Wheat plant response rating,[7]; [12],20
same,"Plant response rating, Wheat",[7]; [13],0
same,"Plant response rating, Wheat",[7]; [14],0
same,"Plant response rating, Corn",corn (Zea mays); [11],0
same,Corn plant response rating,corn (Zea mays); [12],20
same,"Plant response rating, Corn",corn (Zea mays); [13],0
same,"Plant response rating, Corn",corn (Zea mays); [14],0
same,"Plant response rating, Rice (0 to 100 scale, 0 is no effect, 100 is complete control)",rice (Oryza sativa); 125 g ai/ha,0
same,"Plant response rating, Sedge, Umbrella (0 to 100 scale, 0 is no effect, 100 is complete control)",[8]; 125 g ai/ha,0
same,"Plant response rating, Ducksalad (0 to 100 scale, 0 is no effect, 100 is complete control)",[9]; 125 g ai/ha,0
same,"Plant response rating, Barnyardgrass (0 to 100 scale, 0 is no effect, 100 is complete control)",[10]; 125 g ai/ha,0
CC(=O)Oc1nn(-c2ccc(C(F)(F)F)cc2)nc1Cc1ccnc(C(F)(F)F)c1 [Compound 197],"Plant response rating, Barnyardgrass",[1]; [11],0
same,Barnyardgrass plant response rating,[1]; [12],10
same,"Plant response rating, Barnyardgrass",[1]; [13],0
same,"Plant response rating, Barnyardgrass",[1]; [14],0
same,"Plant response rating, Crabgrass, Large",[2]; [11],10
same,"Crabgrass, Large plant response rating",[2]; [12],20
same,"Plant response rating, Crabgrass, Large",[2]; [13],0
same,"Plant response rating, Crabgrass, Large",[2]; [14],0
same,"Plant response rating, Foxtail, Giant",[3]; [11],10
same,"Foxtail, Giant plant response rating",[3]; [12],40
same,"Plant response rating, Foxtail, Giant",[3]; [13],0
same,"Plant response rating, Foxtail, Giant",[3]; [14],0
same,"Plant response rating, Morningglory",[4]; [11],30
same,Morningglory plant response rating,[4]; [12],40
same,"Plant response rating, Morningglory",[4]; [13],0
same,"Plant response rating, Morningglory",[4]; [14],0
same,"Plant response rating, Pigweed",[5]; [11],30
same,Pigweed plant response rating,[5]; [12],70
same,"Plant response rating, Pigweed",[5]; [13],0
same,"Plant response rating, Pigweed",[5]; [14],0
same,"Plant response rating, Velvetleaf",[6]; [11],20
same,Velvetleaf plant response rating,[6]; [12],30
same,"Plant response rating, Velvetleaf",[6]; [13],0
same,"Plant response rating, Velvetleaf",[6]; [14],0
same,"Plant response rating, Wheat",[7]; [11],0
same,Wheat plant response rating,[7]; [12],0
same,"Plant response rating, Wheat",[7]; [13],0
same,"Plant response rating, Wheat",[7]; [14],0
same,"Plant response rating, Corn",corn (Zea mays); [11],0
same,Corn plant response rating,corn (Zea mays); [12],20
same,"Plant response rating, Corn",corn (Zea mays); [13],0
same,"Plant response rating, Corn",corn (Zea mays); [14],0
same,"Plant response rating, Rice (0 to 100 scale, 0 is no effect, 100 is complete control)",rice (Oryza sativa); 250 g ai/ha,0
same,"Plant response rating, Sedge, Umbrella (0 to 100 scale, 0 is no effect, 100 is complete control)",[8]; 250 g ai/ha,0
same,"Plant response rating, Ducksalad (0 to 100 scale, 0 is no effect, 100 is complete control)",[9]; 250 g ai/ha,0
same,"Plant response rating, Barnyardgrass (0 to 100 scale, 0 is no effect, 100 is complete control)",[10]; 250 g ai/ha,0
Oc1nn(-c2ccc(C(F)(F)F)cc2)nc1Cc1ccnc(C(F)(F)F)c1 [Compound 198],"Plant response rating, Barnyardgrass",[1]; [11],0
same,Barnyardgrass plant response rating,[1]; [12],0
same,"Plant response rating, Barnyardgrass",[1]; [13],0
same,"Plant response rating, Barnyardgrass",[1]; [14],0
same,"Plant response rating, Crabgrass, Large",[2]; [11],0
same,"Crabgrass, Large plant response rating",[2]; [12],10
same,"Plant response rating, Crabgrass, Large",[2]; [13],0
same,"Plant response rating, Crabgrass, Large",[2]; [14],0
same,"Plant response rating, Foxtail, Giant",[3]; [11],0
same,"Foxtail, Giant plant response rating",[3]; [12],10
same,"Plant response rating, Foxtail, Giant",[3]; [13],0
same,"Plant response rating, Foxtail, Giant",[3]; [14],0
same,"Plant response rating, Morningglory",[4]; [11],10
same,Morningglory plant response rating,[4]; [12],20
same,"Plant response rating, Morningglory",[4]; [13],0
same,"Plant response rating, Morningglory",[4]; [14],0
same,"Plant response rating, Pigweed",[5]; [11],10
same,Pigweed plant response rating,[5]; [12],50
same,"Plant response rating, Pigweed",[5]; [13],0
same,"Plant response rating, Pigweed",[5]; [14],0
same,"Plant response rating, Velvetleaf",[6]; [11],10
same,Velvetleaf plant response rating,[6]; [12],10
same,"Plant response rating, Velvetleaf",[6]; [13],0
same,"Plant response rating, Velvetleaf",[6]; [14],0
same,"Plant response rating, Wheat",[7]; [11],0
same,Wheat plant response rating,[7]; [12],0
same,"Plant response rating, Wheat",[7]; [13],0
same,"Plant response rating, Wheat",[7]; [14],0
same,"Plant response rating, Corn",corn (Zea mays); [11],0
same,Corn plant response rating,corn (Zea mays); [12],10
same,"Plant response rating, Corn",corn (Zea mays); [13],0
same,"Plant response rating, Corn",corn (Zea mays); [14],0
same,"Plant response rating, Rice (0 to 100 scale, 0 is no effect, 100 is complete control)",rice (Oryza sativa); 250 g ai/ha,0
same,"Plant response rating, Sedge, Umbrella (0 to 100 scale, 0 is no effect, 100 is complete control)",[8]; 250 g ai/ha,0
same,"Plant response rating, Ducksalad (0 to 100 scale, 0 is no effect, 100 is complete control)",[9]; 250 g ai/ha,0
same,"Plant response rating, Barnyardgrass (0 to 100 scale, 0 is no effect, 100 is complete control)",[10]; 250 g ai/ha,0
